Blank lines part the entries; values can stand above or below the compound they belong to.
What was measured:
[1] = target: Serine/threonine-protein kinase Nek6 (Homo sapiens) (UniProt Q9HC98); assay: Inhibition of human recombinant NEK6 at 500 nM in presence of ATP by radiometric assay relative to control
[2] = target: T1, Protein kinase C zeta type (Homo sapiens) (UniProt Q05513); assay: Inhibition of human recombinant PKCz at 500 nM in presence of ATP by radiometric assay relative to control
T1 sequence (whole entry): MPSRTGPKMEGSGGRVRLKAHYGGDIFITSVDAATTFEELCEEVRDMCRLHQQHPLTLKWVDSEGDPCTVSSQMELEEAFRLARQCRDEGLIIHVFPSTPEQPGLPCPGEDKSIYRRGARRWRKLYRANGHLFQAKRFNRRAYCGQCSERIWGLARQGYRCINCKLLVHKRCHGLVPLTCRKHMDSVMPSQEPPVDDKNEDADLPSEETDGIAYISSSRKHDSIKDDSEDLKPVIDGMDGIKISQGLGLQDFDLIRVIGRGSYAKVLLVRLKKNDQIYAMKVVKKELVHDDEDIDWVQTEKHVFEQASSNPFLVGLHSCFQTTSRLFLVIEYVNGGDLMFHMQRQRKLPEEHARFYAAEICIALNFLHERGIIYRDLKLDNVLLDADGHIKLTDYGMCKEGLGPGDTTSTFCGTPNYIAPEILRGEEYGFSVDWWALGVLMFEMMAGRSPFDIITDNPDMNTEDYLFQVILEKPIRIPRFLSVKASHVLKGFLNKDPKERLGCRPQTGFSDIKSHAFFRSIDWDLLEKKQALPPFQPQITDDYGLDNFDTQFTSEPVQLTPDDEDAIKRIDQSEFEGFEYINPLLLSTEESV

[3] = target: T2, cAMP-dependent protein kinase catalytic subunit PRKX (Homo sapiens) (UniProt P51817); assay: Inhibition of human recombinant PRKX at 500 nM in presence of ATP by radiometric assay relative to control
T2 sequence (whole entry): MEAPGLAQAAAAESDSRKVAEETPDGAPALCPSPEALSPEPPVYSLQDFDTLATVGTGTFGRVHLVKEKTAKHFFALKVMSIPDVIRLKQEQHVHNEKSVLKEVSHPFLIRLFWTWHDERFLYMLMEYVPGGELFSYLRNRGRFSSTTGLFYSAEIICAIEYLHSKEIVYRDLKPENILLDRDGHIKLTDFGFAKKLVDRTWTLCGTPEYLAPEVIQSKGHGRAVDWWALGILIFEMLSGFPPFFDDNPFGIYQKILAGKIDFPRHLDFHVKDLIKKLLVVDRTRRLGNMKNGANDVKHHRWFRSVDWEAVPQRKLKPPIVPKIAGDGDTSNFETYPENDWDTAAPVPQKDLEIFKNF

[4] = target: Cyclin-dependent kinase-like 3 (Homo sapiens) (UniProt Q8IVW4); assay: Inhibition of human recombinant CDKL3 at 500 nM related to control ULK1
[5] = target: Serine/threonine-protein kinase 24 (Homo sapiens) (UniProt Q9Y6E0); assay: Inhibition of human recombinant MST3 at 500 nM related to control ULK1
[6] = target: Tyrosine-protein kinase CSK (Homo sapiens) (UniProt P41240); assay: Inhibition of human recombinant CSK at 15 nM in presence of ATP by radiometric assay relative to control
[7] = target: Vascular endothelial growth factor receptor 1 (Homo sapiens) (UniProt P17948); assay: Inhibition of human recombinant FLT1 at 40 nM in presence of ATP by radiometric assay relative to control
[8] = target: T3, Interleukin-1 receptor-associated kinase 4 (Homo sapiens) (UniProt Q9NWZ3); assay: Inhibition of human recombinant IRAK4 at 40 nM in presence of ATP by radiometric assay relative to control
T3 sequence (whole entry): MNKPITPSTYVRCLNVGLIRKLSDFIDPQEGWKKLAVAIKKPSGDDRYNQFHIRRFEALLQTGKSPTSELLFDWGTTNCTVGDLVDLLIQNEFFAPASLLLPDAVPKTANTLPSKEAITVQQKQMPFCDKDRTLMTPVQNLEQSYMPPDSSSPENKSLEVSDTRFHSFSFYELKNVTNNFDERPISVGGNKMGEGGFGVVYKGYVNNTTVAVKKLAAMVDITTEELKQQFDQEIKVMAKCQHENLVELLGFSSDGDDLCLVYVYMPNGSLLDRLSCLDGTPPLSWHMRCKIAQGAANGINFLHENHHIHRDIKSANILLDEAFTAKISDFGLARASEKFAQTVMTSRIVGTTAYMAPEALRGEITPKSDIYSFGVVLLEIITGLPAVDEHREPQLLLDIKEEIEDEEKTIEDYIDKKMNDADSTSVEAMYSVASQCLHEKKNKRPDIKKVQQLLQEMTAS

[9] = target: Serine/threonine-protein kinase SBK1 (Homo sapiens) (UniProt Q52WX2); assay: Inhibition of human recombinant SBK1 at 40 nM in presence of ATP by radiometric assay relative to control
[10] = target: Insulin receptor (Homo sapiens) (UniProt P06213); assay: Inhibition of human recombinant INSR at 40 nM related to control ULK1
[11] = target: T4, Serine/threonine-protein kinase Nek11 (Homo sapiens) (UniProt Q8NG66); assay: Inhibition of human recombinant NEK11 at 40 nM related to control ULK1
T4 sequence (whole entry): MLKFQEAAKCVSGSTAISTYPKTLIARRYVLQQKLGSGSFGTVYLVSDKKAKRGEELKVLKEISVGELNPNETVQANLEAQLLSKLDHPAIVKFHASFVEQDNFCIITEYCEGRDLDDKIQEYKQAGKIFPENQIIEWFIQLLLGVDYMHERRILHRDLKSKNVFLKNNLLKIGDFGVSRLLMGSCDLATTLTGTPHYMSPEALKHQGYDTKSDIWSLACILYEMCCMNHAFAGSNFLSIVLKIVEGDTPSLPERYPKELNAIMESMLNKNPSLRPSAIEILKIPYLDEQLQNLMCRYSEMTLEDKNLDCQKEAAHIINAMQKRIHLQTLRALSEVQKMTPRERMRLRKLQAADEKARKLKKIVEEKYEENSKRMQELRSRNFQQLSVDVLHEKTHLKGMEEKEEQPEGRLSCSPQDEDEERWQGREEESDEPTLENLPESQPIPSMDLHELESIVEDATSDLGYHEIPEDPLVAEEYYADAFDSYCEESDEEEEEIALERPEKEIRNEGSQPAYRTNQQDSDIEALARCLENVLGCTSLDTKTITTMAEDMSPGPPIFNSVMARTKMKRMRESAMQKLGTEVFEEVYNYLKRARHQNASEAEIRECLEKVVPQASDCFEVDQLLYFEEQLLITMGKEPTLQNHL

Chain of Serine/threonine-protein kinase 24 (Homo sapiens) (Q9Y6E0 whole entry, looked up): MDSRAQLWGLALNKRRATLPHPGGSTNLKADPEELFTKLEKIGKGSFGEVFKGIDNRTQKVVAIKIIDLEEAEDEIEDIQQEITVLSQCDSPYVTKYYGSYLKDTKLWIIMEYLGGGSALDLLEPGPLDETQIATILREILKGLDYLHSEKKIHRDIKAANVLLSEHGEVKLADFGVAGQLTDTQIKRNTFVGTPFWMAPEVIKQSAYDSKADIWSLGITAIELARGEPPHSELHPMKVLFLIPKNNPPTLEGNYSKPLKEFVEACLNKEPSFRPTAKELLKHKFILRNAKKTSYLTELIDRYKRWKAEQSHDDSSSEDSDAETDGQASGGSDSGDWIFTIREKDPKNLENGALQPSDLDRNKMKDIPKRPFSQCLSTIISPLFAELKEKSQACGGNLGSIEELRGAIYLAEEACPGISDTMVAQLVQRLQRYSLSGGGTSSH
Chain of Serine/threonine-protein kinase Nek6 (Homo sapiens) (Q9HC98 whole entry): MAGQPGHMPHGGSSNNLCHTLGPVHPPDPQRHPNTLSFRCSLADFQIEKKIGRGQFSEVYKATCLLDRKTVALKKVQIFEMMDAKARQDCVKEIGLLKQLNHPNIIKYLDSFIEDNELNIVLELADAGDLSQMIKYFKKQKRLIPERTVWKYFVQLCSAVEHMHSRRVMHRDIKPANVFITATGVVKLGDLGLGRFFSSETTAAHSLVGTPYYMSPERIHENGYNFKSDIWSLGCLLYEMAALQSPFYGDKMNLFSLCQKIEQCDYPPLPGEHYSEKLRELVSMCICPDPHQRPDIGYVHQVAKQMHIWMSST
Chain of Tyrosine-protein kinase CSK (Homo sapiens) (P41240 2-450 limits assumed): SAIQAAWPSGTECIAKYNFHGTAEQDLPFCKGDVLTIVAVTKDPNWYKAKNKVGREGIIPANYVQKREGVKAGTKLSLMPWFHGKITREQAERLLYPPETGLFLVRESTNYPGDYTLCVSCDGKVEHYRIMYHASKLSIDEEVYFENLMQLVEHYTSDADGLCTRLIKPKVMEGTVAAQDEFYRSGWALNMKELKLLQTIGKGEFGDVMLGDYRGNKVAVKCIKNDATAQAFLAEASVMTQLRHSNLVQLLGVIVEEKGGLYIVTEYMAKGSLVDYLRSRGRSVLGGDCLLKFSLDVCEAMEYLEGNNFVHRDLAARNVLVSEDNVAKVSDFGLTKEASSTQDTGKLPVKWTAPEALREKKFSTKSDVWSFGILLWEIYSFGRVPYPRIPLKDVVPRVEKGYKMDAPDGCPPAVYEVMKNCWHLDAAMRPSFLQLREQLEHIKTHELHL
Chain of Vascular endothelial growth factor receptor 1 (Homo sapiens) (P17948 whole entry): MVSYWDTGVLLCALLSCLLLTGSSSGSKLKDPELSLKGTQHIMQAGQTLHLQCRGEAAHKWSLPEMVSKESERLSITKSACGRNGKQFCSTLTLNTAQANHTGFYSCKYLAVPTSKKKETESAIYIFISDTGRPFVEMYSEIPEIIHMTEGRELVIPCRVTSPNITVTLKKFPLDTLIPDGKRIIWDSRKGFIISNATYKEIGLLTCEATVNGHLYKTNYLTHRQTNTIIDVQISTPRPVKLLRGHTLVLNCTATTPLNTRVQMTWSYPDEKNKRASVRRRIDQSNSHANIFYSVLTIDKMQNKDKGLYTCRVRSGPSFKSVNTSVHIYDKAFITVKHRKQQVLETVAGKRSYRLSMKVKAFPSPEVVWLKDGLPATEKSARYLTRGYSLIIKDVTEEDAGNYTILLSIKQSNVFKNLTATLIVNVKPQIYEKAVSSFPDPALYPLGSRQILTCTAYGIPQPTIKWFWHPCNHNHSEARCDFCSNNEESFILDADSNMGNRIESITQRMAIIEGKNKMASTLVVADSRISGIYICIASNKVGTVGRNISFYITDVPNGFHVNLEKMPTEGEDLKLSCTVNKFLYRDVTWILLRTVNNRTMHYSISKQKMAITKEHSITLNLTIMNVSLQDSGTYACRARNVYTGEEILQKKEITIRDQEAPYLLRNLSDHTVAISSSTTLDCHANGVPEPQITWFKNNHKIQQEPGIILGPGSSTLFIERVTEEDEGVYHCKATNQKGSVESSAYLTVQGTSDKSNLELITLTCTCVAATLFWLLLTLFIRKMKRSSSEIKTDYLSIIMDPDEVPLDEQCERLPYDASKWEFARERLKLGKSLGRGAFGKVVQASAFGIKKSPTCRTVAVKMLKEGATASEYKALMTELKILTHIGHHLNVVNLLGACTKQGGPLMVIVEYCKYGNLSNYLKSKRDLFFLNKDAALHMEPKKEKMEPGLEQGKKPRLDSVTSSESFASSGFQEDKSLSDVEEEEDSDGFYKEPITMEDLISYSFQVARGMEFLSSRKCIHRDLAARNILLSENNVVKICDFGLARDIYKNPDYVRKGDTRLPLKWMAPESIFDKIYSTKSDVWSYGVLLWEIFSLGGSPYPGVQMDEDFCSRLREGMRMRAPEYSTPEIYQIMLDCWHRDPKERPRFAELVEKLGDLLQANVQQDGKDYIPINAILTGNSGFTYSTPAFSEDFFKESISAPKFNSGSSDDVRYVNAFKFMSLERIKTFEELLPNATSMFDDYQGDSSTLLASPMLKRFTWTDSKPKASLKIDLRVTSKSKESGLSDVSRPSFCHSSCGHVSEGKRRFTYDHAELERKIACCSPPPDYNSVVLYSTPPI
Chain of Serine/threonine-protein kinase SBK1 (Homo sapiens) (Q52WX2 whole entry): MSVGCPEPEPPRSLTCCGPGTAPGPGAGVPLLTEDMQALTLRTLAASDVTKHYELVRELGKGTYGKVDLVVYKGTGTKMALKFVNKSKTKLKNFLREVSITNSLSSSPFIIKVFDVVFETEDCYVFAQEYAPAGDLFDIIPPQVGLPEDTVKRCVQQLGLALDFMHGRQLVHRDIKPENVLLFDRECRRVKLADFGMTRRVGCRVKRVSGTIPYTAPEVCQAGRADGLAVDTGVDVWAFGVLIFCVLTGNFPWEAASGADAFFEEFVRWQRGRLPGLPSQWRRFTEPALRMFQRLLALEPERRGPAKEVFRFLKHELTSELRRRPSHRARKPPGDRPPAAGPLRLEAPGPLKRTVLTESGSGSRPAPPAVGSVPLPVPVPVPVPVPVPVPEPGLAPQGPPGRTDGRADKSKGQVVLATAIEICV
Chain of Cyclin-dependent kinase-like 3 (Homo sapiens) (Q8IVW4 whole entry, looked up): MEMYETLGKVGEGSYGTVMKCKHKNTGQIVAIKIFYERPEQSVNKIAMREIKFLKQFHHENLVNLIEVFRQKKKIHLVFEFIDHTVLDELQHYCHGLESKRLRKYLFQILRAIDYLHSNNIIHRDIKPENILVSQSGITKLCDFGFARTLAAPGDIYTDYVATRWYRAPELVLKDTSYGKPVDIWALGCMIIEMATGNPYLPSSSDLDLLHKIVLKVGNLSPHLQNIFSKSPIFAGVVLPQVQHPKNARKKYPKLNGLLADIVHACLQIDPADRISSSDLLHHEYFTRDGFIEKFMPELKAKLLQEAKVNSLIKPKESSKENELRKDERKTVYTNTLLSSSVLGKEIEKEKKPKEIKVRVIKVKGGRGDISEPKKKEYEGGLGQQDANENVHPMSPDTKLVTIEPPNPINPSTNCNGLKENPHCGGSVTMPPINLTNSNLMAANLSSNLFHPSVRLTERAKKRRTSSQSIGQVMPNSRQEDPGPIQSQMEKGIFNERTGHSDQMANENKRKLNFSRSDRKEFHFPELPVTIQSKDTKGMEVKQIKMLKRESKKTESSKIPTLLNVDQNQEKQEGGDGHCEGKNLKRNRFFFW
Chain of Insulin receptor (Homo sapiens) (P06213 28-758 limits assumed): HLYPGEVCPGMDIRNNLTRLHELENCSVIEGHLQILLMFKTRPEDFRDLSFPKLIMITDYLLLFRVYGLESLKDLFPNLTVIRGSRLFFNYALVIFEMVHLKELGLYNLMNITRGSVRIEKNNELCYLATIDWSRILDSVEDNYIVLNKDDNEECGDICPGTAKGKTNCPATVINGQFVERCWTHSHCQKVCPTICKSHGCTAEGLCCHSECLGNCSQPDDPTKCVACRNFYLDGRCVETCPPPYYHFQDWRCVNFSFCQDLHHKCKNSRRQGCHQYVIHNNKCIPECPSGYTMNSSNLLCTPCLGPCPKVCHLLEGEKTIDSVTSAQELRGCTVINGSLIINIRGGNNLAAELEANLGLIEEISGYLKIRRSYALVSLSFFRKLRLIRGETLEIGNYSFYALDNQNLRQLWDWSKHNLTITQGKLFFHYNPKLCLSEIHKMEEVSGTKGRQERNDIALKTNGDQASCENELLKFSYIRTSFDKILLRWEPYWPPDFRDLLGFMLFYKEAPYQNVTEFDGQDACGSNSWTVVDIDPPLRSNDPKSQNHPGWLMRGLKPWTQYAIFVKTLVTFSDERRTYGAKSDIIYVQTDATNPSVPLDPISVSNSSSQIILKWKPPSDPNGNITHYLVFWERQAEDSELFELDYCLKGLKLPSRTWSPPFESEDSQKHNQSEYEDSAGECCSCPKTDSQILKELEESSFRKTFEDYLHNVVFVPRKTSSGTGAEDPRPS
Chain of Insulin receptor (Homo sapiens) (P06213 763-1382 limits assumed): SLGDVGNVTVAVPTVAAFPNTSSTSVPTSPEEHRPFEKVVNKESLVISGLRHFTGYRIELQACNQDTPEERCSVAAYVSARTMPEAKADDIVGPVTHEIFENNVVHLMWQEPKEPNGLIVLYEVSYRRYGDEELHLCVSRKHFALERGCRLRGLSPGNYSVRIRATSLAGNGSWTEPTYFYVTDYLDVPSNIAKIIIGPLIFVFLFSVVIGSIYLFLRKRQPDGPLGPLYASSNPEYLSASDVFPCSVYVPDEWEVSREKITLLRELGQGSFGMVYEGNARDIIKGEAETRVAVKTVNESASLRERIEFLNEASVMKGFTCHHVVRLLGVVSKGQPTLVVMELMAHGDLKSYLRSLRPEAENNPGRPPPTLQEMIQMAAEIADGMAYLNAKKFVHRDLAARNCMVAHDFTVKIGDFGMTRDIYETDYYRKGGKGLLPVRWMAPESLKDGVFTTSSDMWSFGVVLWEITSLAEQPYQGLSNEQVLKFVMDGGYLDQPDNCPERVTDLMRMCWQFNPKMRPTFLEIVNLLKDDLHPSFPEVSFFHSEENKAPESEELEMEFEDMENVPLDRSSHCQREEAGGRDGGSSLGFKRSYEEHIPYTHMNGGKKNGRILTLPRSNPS

inhibition [1]: 0%
inhibition [2]: 0%
inhibition [3]: 16%
fold change (FC) [4]: 0
fold change (FC) [5]: 0.78
SMILES: CNC(=O)c1ccccc1Oc1nc(Nc2cc(OC)c(OC)c(OC)c2)ncc1Br

inhibition [6]: 12%
SMILES: CC(C)[C@H](NC(=O)c1cc(-c2cnn3cc(-c4ccc(OCCN5CCCCC5)cc4)cnc23)cs1)C(F)(F)F

inhibition [7]: 18%
inhibition [8]: 0%
inhibition [9]: 0%
fold change (FC) [10]: 0
fold change (FC) [11]: 0.11
SMILES: O=C(N[C@@H](C1CC1)C(F)(F)F)c1cc(-c2cnn3cc(-c4ccc(F)cc4)cnc23)cs1
